Data on one compound can be found in patent US7498350B2, “Oxazolidinones as antibacterial agents” (AstraZeneca AB, priority 2002, dated 2009).

The structures appear in SMILES notation. In brackets after ≈: the same amount, converted by molar mass.

What all share (assay type): cell-based
Experiment [1] relates to Moraxella catarrhalis. Briefly: MIC, Moraxella catarrhalis (fastidious Gram negative, Mueller-Hinton broth). Particulars: Mueller-Hinton broth with hemin and NAD, 24 hours, 37° C., 5×10^4 CFU/well. As to the method:
(§1) The following results were obtained on a standard in-vitro test system. The activity is described in terms of the minimum inhibitory concentration (MIC) determined by the agar-dilution technique with an inoculum size of 10^4 CFU/spot. Typically, compounds are active in the range 0.01 to 256 μg/ml.
(§2) Streptococci and enterococci were tested on agar supplemented with 5% defibrinated horse blood, an inoculum of 10^4 CFU/spot and an incubation temperature of 37° C. in an atmosphere of 5% carbon dioxide for 48 hours—blood is required for the growth of some of the test organisms. Fastidious Gram negative organisms were tested in Mueller-Hinton broth supplemented with hemin and NAD, grown aerobically for 24 hours at 37° C., and with an innoculum of 5×10^4 CFU/well.

The subject of experiment [2] is Linezolid Resistant Streptococcus pneumoniae. Briefly: MIC by agar dilution, Linezolid Resistant Streptococcus pneumoniae. Particulars: agar with 5% defibrinated horse blood, 10^4 CFU/spot, 37° C., 5% carbon dioxide, 48 hours. As to the method:
as §1, §2

Experiment [3] concerns Staphylococcus aureus MRQR (methicillin resistant and quinolone resistant). Put plainly: MIC by agar dilution, Staphylococcus aureus MRQR. As to conditions: 10^4 CFU/spot, 37° C., 24 hours. Here is the method: as §1
(§3) Staphylococci were tested on agar, using an inoculum of 10^4 CFU/spot and an incubation temperature of 37° C. for 24 hours—standard test conditions for the expression of methicillin resistance.
(In general: In agar dilution the substance is mixed into plates at graded concentrations.)

Experiment [4] deals with Streptococcus pneumoniae. Put plainly: MIC by agar dilution, Streptococcus pneumoniae. Particulars: agar with 5% defibrinated horse blood, 10^4 CFU/spot, 37° C., 5% carbon dioxide, 48 hours. As to the method:
as §1, §2

The subject of experiment [5] is Enterococcus faecium. Briefly: MIC by agar dilution, Enterococcus faecium. As to conditions: agar with 5% defibrinated horse blood, 10^4 CFU/spot, 37° C., 5% carbon dioxide, 48 hours. As to the method: as §1, §2
Experiment [6] deals with Haemophilus influenzae. Put plainly: MIC, Haemophilus influenzae (fastidious Gram negative, Mueller-Hinton broth). Particulars: Mueller-Hinton broth with hemin and NAD, 24 hours, 37° C., 5×10^4 CFU/well. Here is the method: as §1, §2
The subject of experiment [7] is Staphylococcus aureus MSQS (methicillin sensitive and quinolone sensitive). Put plainly: MIC by agar dilution, Staphylococcus aureus MSQS. Particulars: 10^4 CFU/spot, 37° C., 24 hours. Here is the method: as §1, §3

`Cn1nnc(-c2ccc(-c3ccc(N4C[C@H](Cn5ccnn5)OC4=O)cc3F)cn2)n1` [Example 1, (5R)-3-(3-Fluoro-4-(6-(2-methyl-2H-tetrazol-5-yl)pyrid-3-yl)phenyl)-5-(1H-1,2,3-triazol-1-ylmethyl)-1,3-oxazolidin-2-one]: the MIC in experiment [1] is 0.25 µg/mL (≈ 0.593 µM); in experiment [2], 0.5 µg/mL (≈ 1.19 µM); in experiment [3], 0.25 µg/mL (≈ 0.593 µM); in experiment [4], below 0.06 µg/mL; in experiment [5], 0.25 µg/mL (≈ 0.593 µM); in experiment [6], 2 µg/mL (≈ 4.75 µM). For the same compound, the MIC in experiment [7] worked out at 0.25 µg/mL (≈ 0.593 µM).
